Laboratory results taken from patent US9486507B2, “Pro-coagulant compounds and methods of use thereof” (priority 2011, dated 2016).
Square brackets hold non-standard residues; d marks the D form. Ends that are not written are not given here.

molecular target: FIXa (Homo sapiens, UniProt P00740); experiment: FXa generation assay with human FIXa; format: biochemical; set-up: purchased Haematologic Technologies; details: FXa generation assay using human FIXa; class symbols
Sequence (P00740 47-191 limits assumed): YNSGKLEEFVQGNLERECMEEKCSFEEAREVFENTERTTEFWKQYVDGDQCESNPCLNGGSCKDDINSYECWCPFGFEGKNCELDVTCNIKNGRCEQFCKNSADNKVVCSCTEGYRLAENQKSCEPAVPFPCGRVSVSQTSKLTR
Sequence (P00740 227-461 limits assumed): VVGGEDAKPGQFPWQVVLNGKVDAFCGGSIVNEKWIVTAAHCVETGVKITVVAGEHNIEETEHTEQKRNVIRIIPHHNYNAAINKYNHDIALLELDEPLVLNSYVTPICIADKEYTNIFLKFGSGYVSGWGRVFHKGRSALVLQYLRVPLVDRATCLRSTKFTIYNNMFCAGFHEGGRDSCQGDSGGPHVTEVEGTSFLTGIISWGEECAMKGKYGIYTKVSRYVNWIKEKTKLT
Source text: FXa generation was utilized to assess the capability of the compounds of the present disclosure to enhance the catalytic activities of FIXa and/or FVIIa.
To measure the catalytic activity of FIXa, FIXa was mixed with FX and phospholipids in the presence of calcium chloride. Under these conditions FIXa cleaves the zymogen FX into the active form FXa.
The generation of FXa is monitored by the change in absorbance of the reaction at 405 nm due to the presence of a cleavable FXa chromogenic substrate (S-2765; Z-D-Arg-Gly-Arg-pNA; cleavage of p-nitroaniline). […] The kit contains all the FXa generation components, however, FIXa and FX obtained from this kit are from a bovine origin and were replaced with purified human FIXa or human FVIIa and human FX (Haematologic Technologies).
The assay was also modified to enhance the screening throughput. Instead of the sequential addition, all the assay components were mixed and added simultaneously to the purified compound to be assayed. A 125 μl reaction mix of the assay components was prepared in the buffer supplied by the manufacturer (50 mM Tris 7.3, and 1% BSA). […] The reaction mix (125 ul) was then added to 25 ul of compound diluted in water in a Costar-3651 flat bottom 96-well plate. […] The absorbance was monitored over a period of 1 hour at 405 nm using a plate reader (Synergy 2, Biotek).
The 405 nm absorbance data were then analyzed to obtain the slope of the first derivative which reflects the rate of change in absorbance. The first derivative slope data for each compound concentration were plotted against the compound concentration and fitted to a four-parameter equation to obtain the EC50 and Vmax values for each compound tested.

| Substance | Vmax | EC50 [nM] |
| --- | --- | --- |
| KLSCQAGQCWVF | (+++) ((+++)>2) | – |
| VAHYGKVTCLASYCQPLPSVGA | (+) ((+)<1) | – |
| RGSVHQPTCLGGYCGRLHSSWV | (+) ((+)<1) | – |
| GSCRDQLTCLSSDRWQFFRRVS | (+) ((+)<1) | – |
| KLKCLSSECQLL | (+) ((+)<1) | – |
| HDSLDQLTCLASVCQLASMGAR | (+) ((+)<1) | – |
| KLTCLASQCWLF | (+++) ((+++)>2) | – |
| KGRCLTSHCWLF | (+) ((+)<1) | – |
| MLTCIASYCQLG | (+) ((+)<1) | – |
| QGQARKLACLASYCWLFPSSAG | (+) ((+)<1) | – |
| SCVKHELKCLSSDSRLFSAVQR | (+) ((+)<1) | – |
| KLTCLASYCWLK | (+) ((+)<1) | – |
| KLTCLASYCLLF | (+++) ((+++)>2) | 500 to 1000 |
| RHSNHNLTCQASYCWLLPAGLQ | (+) ((+)<1) | – |
| TLLYQNRTCLASYCWLFDKRSV | (+) ((+)<1) | – |
| SGFGMKLTCLASYCGLFQGEIG | (+) ((+)<1) | – |
| QQTCQASQCQLF | (+) ((+)<1) | – |
| SISGQQLTCRASHCWLNLPWHS | (+) ((+)<1) | – |
| KEGFAQLPCLVCQGGLFSPRAI | (+) ((+)<1) | – |
| AQLRRKLTCLASYCWLFGFFSP | (++) ((++) 1-2) | – |
| LTWREKLACLASYCWLFLWGAP | (++) ((++) 1-2) | – |
| RGRSAKLRCLASYCWLFFGVIL | (+++) ((+++)>2) | – |
| KLKCLASYCWLF | (++++) ((++++)>3) | 500 to 1000 |
| EQTCLASYCWLF | (+) ((+)<1) | – |

| Substance | Vmax | EC50 [nM] |
| --- | --- | --- |
| QLTCLASYCWLF | (+) ((+)<1) | – |
| HGLADRLTCLSSDCWLQPFGTS | (+) ((+)<1) | – |
| GASSDKLTCRTRHCSMFQPLSV | (+) ((+)<1) | – |
| RSQGRKLTCLASYCWLFLVVHR | (++) ((++) 1-2) | – |
| SKWEHQRGCLANNCWLFTLAPG | (+) ((+)<1) | – |
| HMQWGKLPCLASYCWLFWYGIG | (+++) ((+++)>2) | – |
| GAQLDKETCLASYCQLFSTVRR | (+) ((+)<1) | – |
| RFQTTQLTCLGSASCLFNLSVR | (+) ((+)<1) | – |
| LQELTKLTCLARSGWLVCNPGY | (+) ((+)<1) | – |
| RRCPGKLQALASYCWLFWTGIA | (+++) ((+++)>2) | – |
| GDSGRKLSCLGSYCWLSVQFMA | (++) ((++) 1-2) | – |
| KLTCLGSYCWLF | (+++) ((+++)>2) | – |
| AVAINKVPCVASYCQLFESKIH | (+) ((+)<1) | – |
| KGAYQKLTCLASYCLLFLLTAQ | (++) ((++) 1-2) | – |
| VSGTGRLTCVASYCWMFQLGSF | (++) ((++) 1-2) | – |
| APPGGKRMCLVSGCQLFPWSAS | (+) ((+)<1) | – |
| MEGTRQPTCLASYCSPFQYVAP | (+) ((+)<1) | – |
| FGQPSRLTCLASYCWLFGNLVT | (++) ((++) 1-2) | – |
| KLTCLASYCWYF | (+++) ((+++)>2) | – |
| KLTCLATYCWLF | (++) ((++) 1-2) | – |
| YARDSTLTCQARTCQLVDYLGP | (+) ((+)<1) | – |
| RPGGGKVTCQASYCWPFLARAG | (+) ((+)<1) | – |
| RLTCLASYCWLF | (+++) ((+++)>2) | – |
| NGGMQKPACLASQCWLFANPLP | (++) ((++) 1-2) | – |

same assay, conditions: FXa generation assay using human FIXa; numeric bounds

| Substance | Vmax |
| --- | --- |
| RYQRARLTCLASYCGLLFSMSA | >0.5 |
| RCAQSRLPWLVSYCWLFSPYGM | >1.5 |
| LRQRLAKTCVASYCWLFSLVAS | >1.5 |
| KKTCVASFCQMI | >4 |
| GASGRRRTCVASYCLLFQSGLP | >0.1 |
| EGRRDKLTCLASYCWLVGHGQH | >0.3 |
| WVPQWKVTCLASCSRLFHGFDA | >1.5 |
| HYARVQLRCLDGYCWLLTKSRM | >2.5 |

same assay, conditions: FXa generation assay, 10 nM hFIXa, 100 nM hFX; class symbols

| Substance | Vmax |
| --- | --- |
| PRIrTVGPGSrSASGKSTCLASYCWLFWTGIA [Compound 24] | (++++) ((++++)>3) |

system: FVIII deficient human plasma; experiment: Thrombin generation assay (TGA) in FVIII-deficient plasma; format: biochemical; details: 0.1 U/mL FVIII; compound 7 100-6.3 uM, compounds 8 and 9 50-3.1 uM

| Substance | TGA activity in the presence of FVIII |
| --- | --- |
| GWKPFLWDPRVLLSSGWYGRGGGGGWKPFLWDPRVLLSSGWYGRG [Compound 9, reference compound] | competes with FVIII |
| GWKPFLWDPRVLLSSGWYGRG [Compound 7, reference compound] | competes with FVIII |
| PWRRFWAWNPRSLALSTWFGRGCD [Compound 8, reference compound] | competes with FVIII |

same assay, conditions: HRF FVIII-deficient plasma (1); 2.5 μM

| Substance | Thrombin Above Baseline (nM) |
| --- | --- |
| PRIrTVGPGSrSASGKLTCLASYCWLFWTGIA (PRI[dR]TVGPGS[dR]SASGKLTCLASYCWLFWTGIA; not fully specified; printed as PRIrTVGPGSrSASGKLTCLASYCWLFWTGIA; cysteine pairing not given here) | ++ (11-20 nM (1) or 30-59 nM (2) (++)) |

same assay, conditions: HRF FVIII-deficient plasma (1); 2.5 μM; listed as PRIRTVGPGSRSASGKLTCLASYCWLFWTGIA

| Substance | Thrombin Above Baseline (nM) |
| --- | --- |
| PRIrTVGPGSrSASGKLTCLASYCWLFWTGIA (PRI[dR]TVGPGS[dR]SASGKLTCLASYCWLFWTGIA; not fully specified; printed as PRIrTVGPGSrSASGKLTCLASYCWLFWTGIA; cysteine pairing not given here) | + (1-10 nM (1) or 1-29 nM (2) (+)) |

same assay, conditions: HRF FVIII-deficient plasma (1); 5 μM

| Substance | Thrombin Above Baseline (nM) |
| --- | --- |
| PRIrTVGPGSrSASGKLTCLASYCWLFWTGIA (PRI[dR]TVGPGS[dR]SASGKLTCLASYCWLFWTGIA; not fully specified; printed as PRIrTVGPGSrSASGKLTCLASYCWLFWTGIA; cysteine pairing not given here) | +++ (21-30 nM (1) or 60-90 nM (2) (+++)) |

same assay, conditions: HRF FVIII-deficient plasma (1); 5 μM; listed as PRIRTVGPGSRSASGKLTCLASYCWLFWTGIA

| Substance | Thrombin Above Baseline (nM) |
| --- | --- |
| PRIrTVGPGSrSASGKLTCLASYCWLFWTGIA (PRI[dR]TVGPGS[dR]SASGKLTCLASYCWLFWTGIA; not fully specified; printed as PRIrTVGPGSrSASGKLTCLASYCWLFWTGIA; cysteine pairing not given here) | ++ (11-20 nM (1) or 30-59 nM (2) (++)) |

same assay, conditions: HRF FVIII-deficient plasma (1); 10 μM

| Substance | Thrombin Above Baseline (nM) |
| --- | --- |
| PRIrTVGPGSrSASGKLTCLASYCWLFWTGIA (PRI[dR]TVGPGS[dR]SASGKLTCLASYCWLFWTGIA; not fully specified; printed as PRIrTVGPGSrSASGKLTCLASYCWLFWTGIA; cysteine pairing not given here) | +++ (21-30 nM (1) or 60-90 nM (2) (+++)) |

same assay, conditions: HRF FVIII-deficient plasma (1); 20 μM

| Substance | Thrombin Above Baseline (nM) |
| --- | --- |
| PRIrTVGPGSrSASGKLTCLASYCWLFWTGIA (PRI[dR]TVGPGS[dR]SASGKLTCLASYCWLFWTGIA; not fully specified; printed as PRIrTVGPGSrSASGKLTCLASYCWLFWTGIA; cysteine pairing not given here) | +++ (21-30 nM (1) or 60-90 nM (2) (+++)) |

same assay, conditions: Precision Biologics FVIII-deficient plasma (2), first Baseline (2) series; 2.5 μM

| Substance | Thrombin Above Baseline (nM) |
| --- | --- |
| PRIrTVGPGSrSASGKLTCLASYCWLFWTGIA (PRI[dR]TVGPGS[dR]SASGKLTCLASYCWLFWTGIA; not fully specified; printed as PRIrTVGPGSrSASGKLTCLASYCWLFWTGIA; cysteine pairing not given here) | ++ (11-20 nM (1) or 30-59 nM (2) (++)) |

same assay, conditions: Precision Biologics FVIII-deficient plasma (2), first Baseline (2) series; 5 μM

| Substance | Thrombin Above Baseline (nM) |
| --- | --- |
| PRIrTVGPGSrSASGKLTCLASYCWLFWTGIA (PRI[dR]TVGPGS[dR]SASGKLTCLASYCWLFWTGIA; not fully specified; printed as PRIrTVGPGSrSASGKLTCLASYCWLFWTGIA; cysteine pairing not given here) | +++ (21-30 nM (1) or 60-90 nM (2) (+++)) |

same assay, conditions: Precision Biologics FVIII-deficient plasma (2), first Baseline (2) series; 10 μM

| Substance | Thrombin Above Baseline (nM) |
| --- | --- |
| PRIrTVGPGSrSASGKLTCLASYCWLFWTGIA (PRI[dR]TVGPGS[dR]SASGKLTCLASYCWLFWTGIA; not fully specified; printed as PRIrTVGPGSrSASGKLTCLASYCWLFWTGIA; cysteine pairing not given here) | +++ (21-30 nM (1) or 60-90 nM (2) (+++)) |
